This is an account of results in US20220281835A1, “PHENOL DERIVATIVES FOR USE AS ANTIMICROBIAL, ANTIBACTERIAL, BACTERICIDE” (SPECIAL PRODUCT'S LINE S.P.A., priority 2019, published 2022).

In experiment [1] the test system is S. Aureus strain 1 (collection) mec a+. Briefly: MIC/MBC broth-dilution (micromethod), CLSI. The class given is cell-based. The following applies: Staphylococcus aureus; for MBC: kills 99,9% of initial population. The source says:
(§1) Determination of Minimal Inhibitory Concentration (MIC), Minimal Bactericidal Concentration (MBC), bactericidal curves and killing rate on Gram positive and Gram negative bacteria strains, for the evaluation of the bactericidal activity of compounds of example 1 (n. 1 to 14).
(§2) In details, phenotypic methods based on in vitro MIC and MBC determination have been performed on previously isolated bacterial strains, identified and characterized at the level of their antibiotic susceptibility profile. According to MIC and MBC data, the Killing Rate was calculated as the ratio between MBC and MIC on which basis it is possible to define the compounds tested as bactericides (killing rate=1-4), or bacteriostatic (killing rate >4).
(§3) Preparation of the solution containing molecules: for each molecule to be tested, solutions were made as DMSO Stock, with a concentration of 2.560 mg/ml, used to test 12 dilutions with the following scalar drug concentrations: 512-256-128-64-32-16-8-4-2-1-0.5-0.25 μg/ml. The scalar dilutions were prepared directly on plates by using Mueller Hinton Broth (MHB) as a solvent.
Bacterial suspension preparation: cryostrains preserved at −80° C. were recovered by incubation in growth medium (Brain Heart Infusion Broth, BHI) for 24-48 hours at 37° C. followed by passages in agar growth medium (Columbia Blood Agar). Colonies with less than 30 hours are suspended in MHB with the purpose to prepare a bacterial suspension with a turbidity of 0.5 MF, containing approximately 1.5×10^8 cfu/ml. This injection is additionally diluted in MHB until reaching a final concentration of 5×10^5 cfu/ml (range 3-7×10^5 cfu/ml). Identical volumes of this bacterial suspension are added on a plate, for each well containing drug scalar dilutions, to obtain a final concentration between 512 a 0.25 μg/ml. The set up of bacterial suspensions as well as the passage on slate has always been performed within 30 minutes, in order not to alter the concentration of the bacterial suspension. Simultaneously, check in broth-microdilution only with solvent (in order to exclude that the effect of growth inhibition might be due to the drug solution solvent), positive growth control in absence of DMSO and drug, and negative purity control only with injection broth are performed. As a consequence the slate is incubated at 37° C. for 24 and 48 hours in aerobes. […] The same observations are valid to evaluate 48 hours MIC. After the incubation, an equal volume of bacterial suspension from each well is plated on agar growth medium and incubated for 24-48 hours at a temperature of 37° C. in aerobes, in order to define the MBC after the incubation.
Bacterial strains: the bactericidal and/or bacteriostatic power of the synthesized compounds can be determined by using standard reference strains such as: • 1. S. Aureus ATCC 25923 res kan, tob, res streptogramine (sga-sgb, efflux), res mupirocina (at low level), res trimetoprim; • 2. S. Aureus strain 1 (collection) mec a+, res kan tob gen, res quinolones, lincosamides, res streptogramine (sga-sgb), mlsb+sa constituent, mlsb constituent, res mupirocine (low level), res trimetoprim; • 3. S. Aureus strain 2 (collection) acquired penicillinase, res kan tob, res streptogramine (sga-sgb, efflux), res mupirocine (low level), res trimetoprim; • 4. Enterococcus faecalis ATCC 51299 (str+gen res at high level, mlsb res, simil van b res); • 5. Enterococcus faecalis strain 1 (collection) (str+kan res at high level str res at high level tetracycline res); • 6. Enterococcus faecalis strain 2 (collection) (kan res at high level); • 7. E. coli of Collection: RESISTANT to ampicilline, amox+ac clav, ampicillinr+sulbactam, cefalexine, cefuroxime, cefuroxime axetil, cefixime, cefpodoxime, cefotaxime, ceftazidime, ceftriaxone, netilmicine, tobramicine, ciprofloxcine, trim/sulfametox, esbl pos, SENSITIVE to meropenem and gentamicine, INTERMEDIATE to amikacine; • 8. 8.

Experiment [2] relates to Enterococcus faecalis strain 2 (collection). Briefly: MIC/MBC broth-dilution (micromethod), CLSI. The class given is cell-based. The following applies: for MBC: E. FAECALIS strain 2, kills 99,9% of initial population.
Description: as §1
as §2, with “Sensitivity tests have been performed in broth-dilution (micromethod) with the purpose to test the possible bacteriostatic and/or bactericidal power in different compounds, in accordance with CLSI guidelines (Clinical and Laboratory Standards Institute). In” for “In”
as §3
Bacterial suspension preparation: cryostrains preserved at −80° C. were recovered by incubation in growth medium (Brain Heart Infusion Broth, BHI) for 24-48 hours at 37° C. followed by passages in agar growth medium (Columbia Blood Agar). Colonies with less than 30 hours are suspended in MHB with the purpose to prepare a bacterial suspension with a turbidity of 0.5 MF, containing approximately 1.5×10^8 cfu/ml. This injection is additionally diluted in MHB until reaching a final concentration of 5×10^5 cfu/ml (range 3-7×10^5 cfu/ml). Identical volumes of this bacterial suspension are added on a plate, for each well containing drug scalar dilutions, to obtain a final concentration between 512 a 0.25 μg/ml. The set up of bacterial suspensions as well as the passage on slate has always been performed within 30 minutes, in order not to alter the concentration of the bacterial suspension. Simultaneously, check in broth-microdilution only with solvent (in order to exclude that the effect of growth inhibition might be due to the drug solution solvent), positive growth control in absence of DMSO and drug, and negative purity control only with injection broth are performed. As a consequence the slate is incubated at 37° C. for 24 and 48 hours in aerobes. The 24 hours MIC is considered as the minimum drug concentration able to inhibit bacterial growth, which makes it possible to observe the absence of bacterial growth and the absence of turbidity. The same observations are valid to evaluate 48 hours MIC. After the incubation, an equal volume of bacterial suspension from each well is plated on agar growth medium and incubated for 24-48 hours at a temperature of 37° C. in aerobes, in order to define the MBC after the incubation. The MBC is evaluated as the minimum concentration of drug able to kill the 99,9% of the initial bacterial population.
Bacterial strains: the bactericidal and/or bacteriostatic power of the synthesized compounds can be determined by using standard reference strains such as: • 1. S. Aureus ATCC 25923 res kan, tob, res streptogramine (sga-sgb, efflux), res mupirocina (at low level), res trimetoprim; • 2. S. Aureus strain 1 (collection) mec a+, res kan tob gen, res quinolones, lincosamides, res streptogramine (sga-sgb), mlsb+sa constituent, mlsb constituent, res mupirocine (low level), res trimetoprim; • 3. S. Aureus strain 2 (collection) acquired penicillinase, res kan tob, res streptogramine (sga-sgb, efflux), res mupirocine (low level), res trimetoprim; • 4. Enterococcus faecalis ATCC 51299 (str+gen res at high level, mlsb res, simil van b res); • 5. […]

Where [3] appears, read: marked *: MIC value read at 48 hours.
Where [4] appears, read: E. FAECALIS strain 2, values without asterisk.
The mark [5] stands for this setting: E. FAECALIS strain 2, marked *: MIC value read at 48 hours.

≈ marks a conversion by molar mass, not a printed value.

With `N#C/C=C/c1ccc(-c2ccc(O)c(C34CC5CC(CC(C5)C3)C4)c2)cc1` (mixture of isomers) [Compound 1], the MBC in experiment [1] and in experiment [2] was 128 µg/mL each time. Also, the MIC (commonly the lowest concentration found to suppress growth) in experiment [1] (setting [3]) is 64 to 128 µg/mL; in experiment [2] (setting [4]), 32 µg/mL.

For the compound `OCC#Cc1ccc(-c2ccc(O)c(C34CC5CC(CC(C5)C3)C4)c2)cc1` [Compound 2, 3-(adamantan-1-yl)-4′-(3-hydroxyprop-1-yn-1-yl)-[1,1′-biphenyl]-4-ol], the results for the MBC in experiment [1] and in experiment [2] were 4 µg/mL (≈ 11.2 µM) and 2 to 4 µg/mL (≈ 5.58 to 11.2 µM), respectively. Besides, the MIC in experiment [1] (values without asterisk) and in experiment [2] (setting [4]) was 0.5 µg/mL (≈ 1.39 µM) throughout.

For the compound `N#C/C(=C\c1ccc(-c2ccc(O)c(C34CC5CC(CC(C5)C3)C4)c2)cc1)C(=O)O` [Compound 4], the minimum bactericidal concentration (MBC) in experiment [1] and in experiment [2] was 4 µg/mL (≈ 10 µM) each time. Besides, the MIC in experiment [1] (values without asterisk) is 2 µg/mL (≈ 5.01 µM); in experiment [2] (setting [5]), 0.5 to 1 µg/mL (≈ 1.25 to 2.5 µM).

In experiment [1] (values without asterisk), `COc1ccc(-c2ccc(C#CC(=O)O)cc2)cc1C12CC3CC(CC(C3)C1)C2` [Compound 7, 4-(3-(1-adamantyl)-4-methoxyphenyl)propiolic acid] returned an MIC of 16 µg/mL (≈ 41.4 µM).

Regarding `O=C(O)/C=C/c1ccc(-c2ccc(OCC(=O)NO)c(C34CC5CC(CC(C5)C3)C4)c2)cc1` [Compound 9], in experiment [1] (values without asterisk), the MIC worked out at 128 µg/mL (≈ 286 µM).

The compound `CC(Oc1ccc(-c2ccc(/C=C/C(=O)O)cc2)cc1C12CC3CC(CC(C3)C1)C2)C(=O)NO` (stereo not shown) [Compound 10] gave an MIC in experiment [1] (values without asterisk) of 32 µg/mL (≈ 69.3 µM).

For `O=C(O)C=Cc1ccc(-c2ccc(O)c(C34CC5CC(CC(C5)C3)C4)c2)c(C=NOCC(=O)O)c1` [Compound 14, 3-[3′-Adamant-1-yl-4′-hydroxy-2-carboxymethoxyiminomethyl-biphenyl-4-yl]-acrylic acid], the MIC in experiment [1] (setting [3]) and in experiment [2] (setting [5]) was 64 to 128 µg/mL (≈ 135 to 269 µM) in each case.

In the case of `N=C(N)NCc1cc(C=CC(=O)O)ccc1-c1ccc(O)c(C23CC4CC(CC(C4)C2)C3)c1.O=C(O)C(F)(F)F` [Compound 15, 3-(3′-Adamantan-1-yl-2-guanidinomethyl-4′-hydroxy-biphenyl-4-yl)-acrylic acid trifluoroacetate], the MBC in experiment [1] and in experiment [2] was 32 to 64 µg/mL each time. Also, the MIC in experiment [1] (setting [3]) and in experiment [2] (setting [5]) was 16 to 32 µg/mL in each case.

For the compound `O=C(O)C=Cc1ccc(-c2cc3c(c(C45CC6CC(CC(C6)C4)C5)c2)OCCO3)cc1` [Compound 16, 3-{4-[8-(Adamantan-1-yl)-2,3-dihydro-benzo[1,4]-dioxin-6-yl]-phenyl}-acrylic acid], the MIC in experiment [1] (setting [3]) was in the range of 2 to 4 µg/mL (≈ 4.8 to 9.6 µM); in experiment [2] (setting [5]), 1 to 2 µg/mL (≈ 2.4 to 4.8 µM).

Turning to `CC(=O)NCc1cc(-c2ccc(/C=C/C(=O)O)cc2)cc(C23CC4CC(CC(C4)C2)C3)c1O` [Compound 17, E-3-[3′-(Acetylaminomethyl)-4′-hydroxy-5′-(adamantan-1-yl)biphenyl-4-yl]-acrylic acid], the MBC in experiment [1] and in experiment [2] was 16 µg/mL (≈ 35.9 µM) in each case. In addition, the MIC in experiment [1] (setting [3]) is 4 to 8 µg/mL (≈ 8.98 to 18 µM); in experiment [2] (setting [5]) it was 2 to 4 µg/mL (≈ 4.49 to 8.98 µM).

As to `O=C(O)/C=C/c1ccc(-c2cc(CNC(=O)Nc3ccccc3)c(O)c(C34CC5CC(CC(C5)C3)C4)c2)cc1` [Compound 18], the MBC – broadly, the smallest concentration meeting the test's criterion for killing – in experiment [1] amounted to 8 µg/mL (≈ 15.3 µM); in experiment [2], 16 µg/mL (≈ 30.6 µM). Also, the MIC in experiment [1] (setting [3]) was in the range of 4 to 8 µg/mL (≈ 7.65 to 15.3 µM); in experiment [2] (setting [5]) it was 2 to 4 µg/mL (≈ 3.83 to 7.65 µM).

Consider `O=C(O)CCc1ccc(-c2ccc(O)c(C34CC5CC(CC(C5)C3)C4)c2)cc1` [Compound 19, 3-(3′-Adamantan-1-yl-4′-hydroxybiphenyl-4-yl)propionic Acid], for which the MBC in experiment [1] is 16 µg/mL (≈ 42.5 µM); in experiment [2] it was 32 µg/mL (≈ 85 µM). Further, the MIC in experiment [1] (setting [3]) and in experiment [2] (setting [5]) was 8 to 16 µg/mL (≈ 21.2 to 42.5 µM) throughout.

`O=Cc1cc(-c2ccc(/C=C/C(=O)O)cc2)cc(C23CC4CC(CC(C4)C2)C3)c1O` [Compound 21, E-3-[3′-Formyl-4′-hydroxy-5′-(adamantan-1-yl)-biphenyl-4-yl]-acrylic acid]: the MIC in experiment [1] (setting [3]) was in the range of 16 to 64 µg/mL (≈ 39.8 to 159 µM); in experiment [2] (setting [5]), 32 to 64 µg/mL (≈ 79.5 to 159 µM).
